Molecules are shown by their SMILES.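 In this assay, cells in 96-well plates receive the compound at five concentrations for 48 hours. Endpoints are linearly interpolated between the surrounding concentrations. GI50 marks 50% less growth.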 Calls of active or inactive are those of the source. Rule as the data show it: active = GI50 up to about 1.1 µM and inactive = higher.

Among the test systems are MOLT-4; Hs-578T; MDA-N; A549; CCRF-CEM; Malme-3M; BT-549; SK-MEL-5; U-251; MDA-MB-231; 786-0; SNB-19; CAKI-1; MDA-MB-435; NCI/ADR-RES; NCI-H226; KM12; HOP-92; HCC 2998; RPMI-8226.
Holding throughout (test): NCI-60 cell line screen, 48 h

As for `NC12CC3CC4C1CC1CC2C(C3)C4(N)C1`, the GI50 in the test with MOLT-4, in the test with Hs-578T, in the test on MDA-N, in the test with A549, in the test on CCRF-CEM and in the test on Malme-3M was > 100 µM (inactive) each time. Besides, the GI50 with BT-549, in the test on SK-MEL-5, in the test on U-251, in the test with MDA-MB-231, in the test with 786-0 and with SNB-19 was > 100 µM (inactive) in each case. Also, the GI50 with CAKI-1, with MDA-MB-435, in the test on NCI/ADR-RES, with NCI-H226, in the test on KM12 and in the test with HOP-92 was > 100 µM (inactive) throughout.
As to `O=C(/C=C1/Nc2ccc([N+](=O)[O-])cc2N/C1=C/C(=O)c1ccc(Cl)cc1)c1ccccc1`, the GI50 with HCC 2998 is > 100 µM (inactive); in the test on MOLT-4, > 100 µM (inactive); with MDA-N, > 100 µM (inactive); with A549, > 100 µM (inactive); in the test on CCRF-CEM, 64.7 µM (inactive); in the test with Malme-3M, > 100 µM (inactive). In addition, the GI50 in the test on BT-549 was > 100 µM (inactive); in the test on SK-MEL-5 it was > 100 µM (inactive); with U-251, 30.8 µM (inactive); with MDA-MB-231, 35 µM (inactive); in the test on 786-0, 48.3 µM (inactive); in the test with SNB-19 it was 37 µM (inactive). Also, the GI50 is > 100 µM (inactive) in the test on CAKI-1; > 100 µM (inactive) with MDA-MB-435; 60.3 µM (inactive) in the test on NCI/ADR-RES; > 100 µM (inactive) with NCI-H226; > 100 µM (inactive) in the test on KM12.
On to `Cc1cc2[nH]c3c(C#N)c(-c4ccccc4)c(/C=N/c4ccc(Cl)cc4)c(=O)n3c2cc1C`, for which the GI50 with HCC 2998, in the test on RPMI-8226, in the test with MDA-N, in the test on A549, in the test on CCRF-CEM and with Malme-3M was > 100 µM (inactive) throughout. Besides, the GI50 in the test with BT-549, in the test on SK-MEL-5, with U-251, with MDA-MB-231, in the test with 786-0 and in the test with SNB-19 was > 100 µM (inactive) each time. In addition, the GI50 with CAKI-1, with MDA-MB-435, with NCI/ADR-RES, in the test with NCI-H226 and in the test with KM12 was > 100 µM (inactive) in each case.
Consider `Cc1cn(C(CO)OC(CO)CN(O)C2C3CC4CC(C3)CC2C4)c(=O)[nH]c1=O` (centres undefined), for which the GI50 in the test with HCC 2998, with RPMI-8226, in the test on MOLT-4, in the test on Hs-578T, with MDA-N and in the test on A549 was > 100 µM (inactive) each time. The GI50 in the test on BT-549, in the test with SK-MEL-5, in the test on U-251, in the test on MDA-MB-231, in the test with 786-0 and in the test on SNB-19 was > 100 µM (inactive) each time. Besides, the GI50 with CAKI-1, in the test with MDA-MB-435, in the test with NCI-H226, with KM12 and in the test with HOP-92 was > 100 µM (inactive) each time.
As for `CSCCCNC(=O)c1csc(-c2csc(C(CNC(=O)OC(C)(C)C)CNC(=O)OC(C)(C)C)n2)n1`, the GI50 in the test with RPMI-8226 was 14.3 µM (inactive); with MOLT-4, 16.8 µM (inactive); in the test on Hs-578T, 45.8 µM (inactive); with MDA-N, 51.4 µM (inactive); with CCRF-CEM, 16.6 µM (inactive); with BT-549, 34.5 µM (inactive). Further, the GI50 is 26.1 µM (inactive) in the test with SK-MEL-5; 25.6 µM (inactive) in the test with U-251; 57.8 µM (inactive) with MDA-MB-231; 50.4 µM (inactive) with 786-0; 58.3 µM (inactive) in the test with SNB-19; 59.6 µM (inactive) in the test on CAKI-1. Also, the GI50 was 45 µM (inactive) with MDA-MB-435; 24.8 µM (inactive) with NCI/ADR-RES; 42.5 µM (inactive) in the test on NCI-H226; 31 µM (inactive) with KM12; 43 µM (inactive) in the test on HOP-92.
For `Cc1ccc2c(=O)cc(Cc3csc4ccccc34)[nH]c2n1`, the GI50 in the test on RPMI-8226 was 22.3 µM (inactive); in the test with MOLT-4 it was 38.3 µM (inactive); in the test on Hs-578T it was 12.7 µM (inactive); in the test on MDA-N, 64.7 µM (inactive); in the test on A549 it was 27.4 µM (inactive); with CCRF-CEM it was 41.4 µM (inactive). The GI50 in the test with Malme-3M is 12.4 µM (inactive); with BT-549, 23.3 µM (inactive); in the test with SK-MEL-5, 16.4 µM (inactive); in the test with U-251, 69.8 µM (inactive); in the test on MDA-MB-231 it was 52.5 µM (inactive); with 786-0 it was 46.2 µM (inactive). In addition, the GI50 with SNB-19 is 39.7 µM (inactive); in the test with CAKI-1 it was 44.3 µM (inactive); with MDA-MB-435 it was 32.6 µM (inactive); in the test with NCI/ADR-RES, 19.8 µM (inactive); in the test with NCI-H226, 18.1 µM (inactive); in the test on KM12 it was 21.3 µM (inactive).
`Cc1ccc(Nc2nc(=O)c3c([nH]c4ccccc43)s2)cc1`: the GI50 in the test on RPMI-8226 was 4.21 µM (inactive); in the test with MOLT-4, 21.7 µM (inactive); in the test on Hs-578T it was 27.2 µM (inactive); with MDA-N, 2.34 µM (inactive); in the test with A549, 12.6 µM (inactive); in the test with CCRF-CEM it was 20.1 µM (inactive). Besides, the GI50 in the test on Malme-3M is 10.6 µM (inactive); in the test on BT-549, 18.2 µM (inactive); in the test on SK-MEL-5 it was 8.32 µM (inactive); with U-251, 12.8 µM (inactive); in the test with MDA-MB-231, 17.1 µM (inactive); with 786-0, 14.5 µM (inactive). The GI50 is 26.4 µM (inactive) in the test on SNB-19; 8.55 µM (inactive) in the test on CAKI-1; 2.48 µM (inactive) in the test with MDA-MB-435; 14.2 µM (inactive) with NCI/ADR-RES; 3.43 µM (inactive) in the test on KM12; 10.1 µM (inactive) in the test on HOP-92.
As to `O=[N+]([O-])c1ccc2c(c1)c(S(=O)(=O)O)cc1nonc12`, the GI50 in the test with RPMI-8226, with MOLT-4, with Hs-578T, in the test on MDA-N, with A549 and in the test on Malme-3M was > 100 µM (inactive) each time. Besides, the GI50 in the test on BT-549, with SK-MEL-5, in the test with U-251, in the test with MDA-MB-231, in the test on 786-0 and with SNB-19 was > 100 µM (inactive) each time. The GI50 with CAKI-1, with MDA-MB-435, in the test with NCI/ADR-RES, with NCI-H226, in the test with KM12 and in the test with HOP-92 was > 100 µM (inactive) each time.
For `CC(CCC(=O)O)[C@H]1CCC2[C@H]3C(CC(=O)[C@@]21C)[C@@]1(C)CCC(O)C[C@H]1C[C@@H]3O` (some centres undefined), the GI50 in the test on HCC 2998, in the test with RPMI-8226, with MOLT-4, in the test with MDA-N, with A549 and in the test on CCRF-CEM was > 100 µM (inactive) throughout. For the same compound, the GI50 in the test with Malme-3M, in the test on BT-549, in the test with U-251, in the test with MDA-MB-231, with 786-0 and in the test on SNB-19 was > 100 µM (inactive) throughout. Besides, the GI50 in the test on CAKI-1, in the test on MDA-MB-435, in the test on NCI/ADR-RES, in the test on NCI-H226, in the test with KM12 and with HOP-92 was > 100 µM (inactive) in each case.
Turning to `CCCCCCOC(=O)/C=C/[C@]1(CO)C/C(=C/CC(C(C)C)C(C)C)C(=O)O1`, the GI50 is 2.2 µM (inactive) in the test on HCC 2998; 15.7 µM (inactive) with RPMI-8226; 1.58 µM (inactive) in the test on MOLT-4; 4.75 µM (inactive) in the test with Hs-578T; 1.39 µM (inactive) in the test with MDA-N; 2.99 µM (inactive) in the test on A549. In addition, the GI50 with Malme-3M is 12.2 µM (inactive); with BT-549, 10.5 µM (inactive); in the test on SK-MEL-5 it was 2.13 µM (inactive); with 786-0, 4.36 µM (inactive); in the test with SNB-19, 10.5 µM (inactive); in the test with CAKI-1, 10.9 µM (inactive). In addition, the GI50 is 0.738 µM (active) in the test with MDA-MB-435; 13.9 µM (inactive) in the test on NCI/ADR-RES; 3.41 µM (inactive) in the test on NCI-H226; 16 µM (inactive) in the test with KM12; 12.1 µM (inactive) in the test on HOP-92.
For the compound `CC1(C)CCC(C)(C)c2cc(C(=O)Nc3ccc(C(=O)O)cc3)ccc21`, the GI50 in the test on HCC 2998 was 19.2 µM (inactive); in the test on RPMI-8226, 14.5 µM (inactive); with MOLT-4, 24.9 µM (inactive); in the test with MDA-N it was 22 µM (inactive); with A549 it was 20 µM (inactive); with CCRF-CEM, 18.2 µM (inactive). For the same compound, the GI50 in the test on Malme-3M is 18.7 µM (inactive); with BT-549, 25.5 µM (inactive); in the test on SK-MEL-5, 23.6 µM (inactive); with U-251, 27 µM (inactive); with MDA-MB-231, 22.4 µM (inactive); in the test with 786-0, 28.9 µM (inactive). Moreover, the GI50 in the test with SNB-19 was 26.1 µM (inactive); in the test on CAKI-1, 18.4 µM (inactive); in the test with MDA-MB-435, 16.4 µM (inactive); in the test on NCI/ADR-RES, 19.9 µM (inactive); with NCI-H226, > 44.8 µM (inactive); with KM12, 26.5 µM (inactive). Besides, the GI50 in the test with HOP-92 is 27.1 µM (inactive).

Source of the values: ChEMBL document CHEMBL1201862, “PubChem BioAssay data set” (2004).
